From US5707963A, “Methods of using growth inhibitory peptides” (Health Research, Incorporated, priority 1996, dated 1998)

Tests used:
[1] = test system: estrogen-stimulated growth of mouse uterus; format: in vivo; conditions: immature mouse uterus, 10-100 ng per mouse, peak assay point of the dilution series
Description: An in vivo wet weight bioassay measuring inhibition of estrogen-stimulated growth of uteri was performed. The procedure of Mizejewski et al. was used for the wet weight assay (see Mizejewski, G. J. et al. (1983); Mizejewski, G. J. et al. (1986); Mizejewski, G. J. and A. S. Warner (1989); Mizejewski, G. J. et al., "Separation of the Estrogen-Activated Growth-Regulatory Forms of Alpha-Fetoprotein in Mouse Amniotic Fluid," Biol of Reprod 42:887-898 (1990); and Allen, S.H.G. et al. (1993)).
Briefly, the synthesized powdered peptide was reconstituted in saline (1 mg/ml) to form a stock solution of the GIP. The stock solution was appropriately diluted to provide dosages of 25 to 100 ng/mouse. 0.1 ml of the appropriately diluted GIP was injected intraperitoneally into 15-18 day old Nya:NYLAR female mice. Control mice were injected with saline or other peptides, including a peptide encoded by a portion of the amino acid sequence of albumin and a random 34 amino acid peptide. 1 hour after this first injection, an estrogen challenge of 0.5 micrograms of E2 in 0.1 ml saline was given to determine the change in uterine responsiveness to E2 resulting from exposure to the first injection. 23 hours after the second injection, uteri were dissected, trimmed free of connective tissue and immediately weighed. The uterine wet weights were normalized to mouse body weight (mg uterine weight/g of body weight) to compensate for differences in body weight among litters of the same age. Percent inhibition of estrogen-stimulated uterine growth was calculated as described by Mizejewski et al. (1983).
Two separate bioassays for inhibition of estrogen-stimulated growth were used. The first was an in vivo bioassay measuring an estrogen-induced increase in wet weight of the immature mouse uterus in a 24-hour determination. Dosages of peptide fragments ranged from 10 to 100 ng, and the %inhibition given in Table 6 represents the peak assay point of the dilution series.

[2] = transformed human AFP preparations
[3] = test system: estrogen-stimulated growth of mouse uterus; conditions: full-length transformed AFP, see references cited; cited from earlier work

## SEQ ID NO:5: 5' fragment generated by cutting the 34 amino acid peptide SEQ ID NO:1 with trypsin (HEMTPVNPGV)
[1]
  Percent Growth Inhibition: 38%

## SEQ ID NO:7: 3' fragment generated by cutting SEQ ID NO:1 with trypsin; 5 amino acids in length (LSEDK)
[1]
  Percent Growth Inhibition: no detectable growth inhibition

B1: full-length transformed AFP molecule: full-length alpha-fetoprotein transformed by incubation with estradiol (E2) (protein, UniProt P02771 19-609, looked up)
Alpha-fetoprotein: RTLHRNEYGIASILDSYQCTAEISLADLATIFFAQFVQEATYKEVSKMVKDALTAIEKPTGDEQSSGCLENQLPAFLEELCHEKEILEKYGHSDCCSQSEEGRHNCFLAHKKPTPASIPLFQVPEPVTSCEAYEEDRETFMNKFIYEIARRHPFLYAPTILLWAARYDKIIPSCCKAENAVECFQTKAATVTKELRESSLLNQHACAVMKNFGTRTFQAITVTKLSQKFTKVNFTEIQKLVLDVAHVHEHCCRGDVLDCLQDGEKIMSYICSQQDTLSNKITECCKLTTLERGQCIIHAENDEKPEGLSPNLNRFLGDRDFNQFSSGEKNIFLASFVHEYSRRHPQLAVSVILRVAKGYQELLEKCFQTENPLECQDKGEEELQKYIQESQALAKRSCGLFQKLGEYYLQNAFLVAYTKKAPQLTSSELMAITRKMAATAATCCQLSEDKLLACGEGAADIIIGHLCIRHEMTPVNPGVGQCCTSSYANRRPCFSSLVVDETYVPPAFSDDKFIFHKDLCQAQGVALQTMKQEFLINLVKQKPQITEEQLEAVIADFSGLLEKCCQGQEQEVCFAEEGQKLISKTRAALGV
modifications: transformed by estradiol incubation
[2]
  time activity is retained: one week or less
[3]
  inhibition of estrogen-stimulated growth: 20-40%
